Experimental data as given in the NIST ThermoML archive (doi:10.1016/j.jct.2016.03.026).
Values joined by “and” are separate entries in the source; they are usually repeats but may differ in a detail not shown here. Equal entries are not always repeated.

Test: xn = mol fraction of the nth substance listed
Settings: Fluid (supercritical or subcritical phases), Frequency=5 MHz, Pulse-echo method

O=C=O [carbon dioxide] + CO
Settings | speed of sound
313.15 K, 90000 kPa, x1 = 0.97 | 980.1 m/s
313.15 K, 100110 kPa, x1 = 0.97 | 1019.5 m/s
313.15 K, 109900 kPa, x1 = 0.97 | 1055.1 m/s
313.15 K, 120040 kPa, x1 = 0.97 | 1089.6 m/s
313.15 K, 140110 kPa, x1 = 0.97 | 1152.5 m/s
313.15 K, 159960 kPa, x1 = 0.97 | 1208.8 m/s
313.15 K, 179840 kPa, x1 = 0.97 | 1260.7 m/s
323.14 K, 24960 kPa, x1 = 0.925 | 536.3 m/s and 537.4 m/s
323.14 K, 24980 kPa, x1 = 0.925 | 537.5 m/s
323.14 K, 25000 kPa, x1 = 0.925 | 537.5 m/s
323.14 K, 29980 kPa, x1 = 0.925 | 591.2 m/s
323.14 K, 29990 kPa, x1 = 0.925 | 591.2 m/s and 590.7 m/s and 591.5 m/s
323.14 K, 34960 kPa, x1 = 0.925 | 636.5 m/s and 637.2 m/s
323.14 K, 34980 kPa, x1 = 0.925 | 637.4 m/s
323.14 K, 34990 kPa, x1 = 0.925 | 637.5 m/s
323.14 K, 39980 kPa, x1 = 0.925 | 678 m/s and 677.9 m/s
323.14 K, 39990 kPa, x1 = 0.925 | 678.6 m/s
323.14 K, 40000 kPa, x1 = 0.925 | 678.2 m/s
323.14 K, 44980 kPa, x1 = 0.925 | 714.6 m/s and 714.8 m/s
323.14 K, 45000 kPa, x1 = 0.925 | 714.7 m/s
323.14 K, 49960 kPa, x1 = 0.925 | 748 m/s
323.14 K, 49980 kPa, x1 = 0.925 | 748.4 m/s and 748.2 m/s
323.14 K, 50000 kPa, x1 = 0.925 | 748.4 m/s
323.14 K, 54960 kPa, x1 = 0.925 | 779.2 m/s
323.14 K, 54980 kPa, x1 = 0.925 | 779.1 m/s
323.14 K, 55000 kPa, x1 = 0.925 | 779.3 m/s
323.14 K, 55010 kPa, x1 = 0.925 | 779.4 m/s
323.14 K, 59980 kPa, x1 = 0.925 | 807.9 m/s and 808.1 m/s
323.14 K, 59990 kPa, x1 = 0.925 | 808.2 m/s
323.14 K, 60030 kPa, x1 = 0.925 | 808.2 m/s
323.14 K, 64970 kPa, x1 = 0.925 | 835.2 m/s and 835.3 m/s and 835.1 m/s
323.14 K, 64990 kPa, x1 = 0.925 | 835.4 m/s
323.14 K, 69970 kPa, x1 = 0.925 | 860.9 m/s and 860.8 m/s
323.14 K, 69980 kPa, x1 = 0.925 | 861 m/s
323.14 K, 69990 kPa, x1 = 0.925 | 860.9 m/s
323.14 K, 74950 kPa, x1 = 0.925 | 885 m/s
323.14 K, 74990 kPa, x1 = 0.925 | 885.2 m/s
323.14 K, 75000 kPa, x1 = 0.925 | 885.4 m/s
323.14 K, 75060 kPa, x1 = 0.925 | 885.5 m/s
323.14 K, 79970 kPa, x1 = 0.925 | 908.3 m/s
323.14 K, 79990 kPa, x1 = 0.925 | 908.5 m/s and 908.4 m/s
323.14 K, 80000 kPa, x1 = 0.925 | 908.4 m/s
323.14 K, 89990 kPa, x1 = 0.925 | 951.7 m/s
323.14 K, 90000 kPa, x1 = 0.925 | 951.8 m/s and 952 m/s
323.14 K, 99950 kPa, x1 = 0.925 | 991.5 m/s
323.14 K, 100000 kPa, x1 = 0.925 | 992.1 m/s
323.14 K, 100010 kPa, x1 = 0.925 | 991.8 m/s and 991.7 m/s
323.14 K, 109960 kPa, x1 = 0.925 | 1028.8 m/s
323.14 K, 109980 kPa, x1 = 0.925 | 1029.1 m/s and 1028.9 m/s
323.14 K, 109990 kPa, x1 = 0.925 | 1029 m/s
323.14 K, 119970 kPa, x1 = 0.925 | 1063.9 m/s and 1063.8 m/s
323.14 K, 119990 kPa, x1 = 0.925 | 1063.9 m/s
323.14 K, 129960 kPa, x1 = 0.925 | 1096.8 m/s
323.14 K, 129980 kPa, x1 = 0.925 | 1096.8 m/s
323.14 K, 129990 kPa, x1 = 0.925 | 1096.8 m/s
323.14 K, 130020 kPa, x1 = 0.925 | 1096.9 m/s
323.14 K, 139960 kPa, x1 = 0.925 | 1128 m/s
323.14 K, 139990 kPa, x1 = 0.925 | 1128 m/s and 1128.1 m/s
323.14 K, 140000 kPa, x1 = 0.925 | 1128.1 m/s
323.14 K, 149960 kPa, x1 = 0.925 | 1157.6 m/s
323.14 K, 149980 kPa, x1 = 0.925 | 1157.7 m/s
323.14 K, 149990 kPa, x1 = 0.925 | 1157.7 m/s
323.14 K, 150010 kPa, x1 = 0.925 | 1157.8 m/s
323.14 K, 159990 kPa, x1 = 0.925 | 1186.2 m/s
323.14 K, 160000 kPa, x1 = 0.925 | 1187 m/s
323.14 K, 160010 kPa, x1 = 0.925 | 1186 m/s
323.14 K, 160050 kPa, x1 = 0.925 | 1186.2 m/s
323.14 K, 169940 kPa, x1 = 0.925 | 1213.1 m/s
323.14 K, 169980 kPa, x1 = 0.925 | 1213.1 m/s and 1213.3 m/s
323.14 K, 170010 kPa, x1 = 0.925 | 1213.2 m/s
323.14 K, 179960 kPa, x1 = 0.925 | 1239.4 m/s
323.14 K, 180000 kPa, x1 = 0.925 | 1239.1 m/s and 1239.5 m/s
323.14 K, 180100 kPa, x1 = 0.925 | 1239.2 m/s
323.14 K, 189980 kPa, x1 = 0.925 | 1263.9 m/s
323.14 K, 190000 kPa, x1 = 0.925 | 1264.3 m/s
323.14 K, 190010 kPa, x1 = 0.925 | 1264.5 m/s
323.14 K, 190050 kPa, x1 = 0.925 | 1264.6 m/s
323.15 K, 24960 kPa, x1 = 0.8502 | 549.5 m/s
323.15 K, 25000 kPa, x1 = 0.7534 | 585.5 m/s
323.15 K, 29950 kPa, x1 = 0.7534 | 635.7 m/s
323.15 K, 30020 kPa, x1 = 0.8502 | 602.8 m/s
323.15 K, 35040 kPa, x1 = 0.7534 | 680.4 m/s
323.15 K, 35100 kPa, x1 = 0.8502 | 648.9 m/s
323.15 K, 40000 kPa, x1 = 0.7534 | 719.1 m/s
323.15 K, 40050 kPa, x1 = 0.8502 | 688.4 m/s
323.15 K, 45010 kPa, x1 = 0.8502 | 724.5 m/s
323.15 K, 45070 kPa, x1 = 0.7534 | 755 m/s
323.15 K, 49920 kPa, x1 = 0.8502 | 757.3 m/s
323.15 K, 50420 kPa, x1 = 0.7534 | 789.8 m/s
323.15 K, 55040 kPa, x1 = 0.8502 | 788.7 m/s
323.15 K, 55120 kPa, x1 = 0.7534 | 818.2 m/s
323.15 K, 59980 kPa, x1 = 0.8502 | 817.2 m/s
323.15 K, 60110 kPa, x1 = 0.7534 | 846.6 m/s
323.15 K, 64840 kPa, x1 = 0.8502 | 843.5 m/s
323.15 K, 65810 kPa, x1 = 0.7534 | 876.8 m/s
323.15 K, 69880 kPa, x1 = 0.8502 | 869.3 m/s
323.15 K, 70220 kPa, x1 = 0.7534 | 899.1 m/s
323.15 K, 75110 kPa, x1 = 0.8502 | 894.6 m/s
323.15 K, 75220 kPa, x1 = 0.7534 | 923.1 m/s
323.15 K, 80180 kPa, x1 = 0.8502 | 918 m/s
323.15 K, 89680 kPa, x1 = 0.8502 | 959.3 m/s
323.15 K, 90000 kPa, x1 = 0.7534 | 988.1 m/s
323.15 K, 99900 kPa, x1 = 0.8502 | 1000.3 m/s
323.15 K, 100230 kPa, x1 = 0.7534 | 1029 m/s
323.15 K, 109760 kPa, x1 = 0.8502 | 1037.3 m/s
323.15 K, 109960 kPa, x1 = 0.7534 | 1065.3 m/s
323.15 K, 119510 kPa, x1 = 0.8502 | 1071.6 m/s
323.15 K, 120580 kPa, x1 = 0.7534 | 1102.5 m/s
323.15 K, 139890 kPa, x1 = 0.8502 | 1137.2 m/s
323.15 K, 140520 kPa, x1 = 0.7534 | 1166.6 m/s
323.15 K, 160410 kPa, x1 = 0.7534 | 1224.7 m/s
323.15 K, 180460 kPa, x1 = 0.7534 | 1278.6 m/s
323.16 K, 69980 kPa, x1 = 0.9803 | 855.3 m/s
323.16 K, 74960 kPa, x1 = 0.9803 | 879.8 m/s
323.16 K, 79950 kPa, x1 = 0.9803 | 903.2 m/s
323.16 K, 89640 kPa, x1 = 0.9803 | 945.6 m/s
323.16 K, 99690 kPa, x1 = 0.9803 | 986.1 m/s
323.16 K, 110360 kPa, x1 = 0.9803 | 1025.6 m/s
323.16 K, 120030 kPa, x1 = 0.9803 | 1059.8 m/s
323.16 K, 129970 kPa, x1 = 0.9803 | 1092.5 m/s
323.16 K, 140230 kPa, x1 = 0.9803 | 1124.5 m/s
323.16 K, 150140 kPa, x1 = 0.9803 | 1153.8 m/s
